Test results as given in patent US8058295B2, “Cystic fibrosis transmembrane conductance regulator protein inhibitors and uses thereof” (The Regents of the University of California, priority 2002, dated 2011).

Legend:
[1] = test system: cholera toxin-induced fluid secretion; set-up: species or system rats; conditions: in vivo
[2] = Tissue distribution and elimination in mice after intravenous bolus; assay type: in vivo
Description: A bolus of ^14C-CFTRinh-172 (2 μCi) was administered intravenously over 1 min in mice (male CD1 mice, 30-35 grams) by tail vein. Mice were sacrificed at 5, 30, 120 and 240 min. Organs were removed, weighed and homogenized in distilled water (10-50 vol %). Radioactivity was determined by scintillation counting of the homogenates (25-50 μL) and expressed as total ^14C-radioactivity per organ (or per gram tissue for skeletal muscle). At the same time blood, urine and bile (from gallbladder or duodenum) were collected and ^14C-radioactivity was measured and expressed per mL of fluid. Elimination studies were done by collections of urine and stool over the first 24 hr after ^14C-CFTRinh-172 administration. Tissue distribution studies were also done on rats prepared as for pharmacokinetic studies.

wildtype CFTR = wildtype CFTR (Homo sapiens, UniProt P13569); experiment: YFP fluorescence assay of CFTR-mediated I^− transport in FRT cells; assay type: cell-based; set-up: expressed in transfected cells; host or cells: Fischer rat thyroid (FRT) cells
Description: FIG. 1A is a schematic representation of a screening technique used for detection of CFTR inhibitors. CFTR was maximally stimulated by multiple agonists in stably transfected epithelial cells co-expressing human CFTR and a yellow fluorescent protein (YFP) having Cl^−/I^− sensitive fluorescence. After addition of a test compound, I^− influx was induced by adding an I^− containing solution.
Cells were plated in 96-well black-walled microplates (Corning Costar) at a density of 20,000 cells per well in Coon's modified F12 medium supplemented with 5% fetal calf serum, 2 mM L-glutamine, 100 U/mL penicillin, and 100 μg/mL streptomycin. Assays were done at 48 hours after plating at which time cells were just confluent (˜40,000 cells per well).
Assays were done using a customized screening system (Beckman) consisting of a 3-meter robotic arm, CO2 incubator, plate washer, liquid handling workstation, bar code reader, delidding station, and two FluoStar fluorescence plate readers (BMG Labtechnologies, Offenburg, Germany), each equipped with two syringe pumps and HQ500/20X (500±10 nm) excitation and HQ535/30M (535±15 nm) emission filters (Chroma). The robotic system was integrated using SAMI version 3.3 software (Beckman) modified for two plate readers. Custom software was written in VBA (Visual Basic for Applications) to compute baseline-subtracted, normalized fluorescence slopes (giving halide influx rates) from stored data files.
The assay was set-up by loading the incubator (37° C., 90% humidity, 5% CO2) with 40-60 96-well plates containing the FRT cells, and loading a carousel with 96-well plates containing test compounds and disposable plastic pipette tips. To initiate the assay, each well of a 96-well plate was washed 3 times in PBS (300 μL/wash), leaving 50 μL PBS. Ten μL of a CFTR-activating cocktail (5 μM forskolin, 100 μM IBMX, 25 μM apigenin in PBS) was added, and after 5 min one test compound (0.5 μL of 1 mM DMSO solution) was added to each well to give 10 μM final concentration. After 10 min, 96-well plates were transferred to a plate reader for fluorescence assay. Each well was assayed individually for CFTR-mediated I^− transport by recording fluorescence continuously (200 ms per point) for 2 s (baseline) and then for 12 s after rapid (<0.5 s) addition of 160 μL of isosmolar PBS in which 137 mM Cl^− was replaced by I^−.
The primary screening technique used to identify the compounds of the invention was designed to identify inhibitors of CFTR Cl^− conductance by direct CFTR-inhibitor interaction. CFTR was pre-stimulated in CFTR-expressing FRT cells by an activating cocktail containing forskolin, IBMX and apigenin, as shown schematically in FIG. 1A. The activation of CFTR by multiple mechanisms (cAMP elevation, phosphodiesterase inhibition, and direct CFTR binding) allowed identification of inhibitors that blocked the CFTR Cl^− transporting pathway directly rather than more proximal step(s) in a signaling pathway. The FRT cells co-expressed a yellow fluorescent protein-based Cl^−/I^− sensor that provided a quantitative fluorescence read-out of inhibition potency (See, e.g., Jayaraman et al., 2000, J. Biol. Chem. 275:6047-6050; Galietta et al., 2001, Am. J. Physiol. 281:C1734-C1742.). After CFTR pre-stimulation and compound addition, cells were subjected to an inwardly-directed I^− gradient to drive I^− influx and produce decreasing fluorescence. Each assay consisted of recording baseline fluorescence for 2 seconds, followed by 12 seconds of continuous recording of fluorescence after rapid addition of the I^− containing solution. Compounds were tested separately at 10 μM concentration in a 96-well format utilizing a fully-automated high-throughput screening apparatus (see Example 2 below).

[3] = biological target: T1, Na^+/H^+ exchanger (NHE3) (Homo sapiens, UniProt P48764); experiment: Na^+/H^+ exchanger block; conditions: 5 μM
T1 sequence (P48764 26-834): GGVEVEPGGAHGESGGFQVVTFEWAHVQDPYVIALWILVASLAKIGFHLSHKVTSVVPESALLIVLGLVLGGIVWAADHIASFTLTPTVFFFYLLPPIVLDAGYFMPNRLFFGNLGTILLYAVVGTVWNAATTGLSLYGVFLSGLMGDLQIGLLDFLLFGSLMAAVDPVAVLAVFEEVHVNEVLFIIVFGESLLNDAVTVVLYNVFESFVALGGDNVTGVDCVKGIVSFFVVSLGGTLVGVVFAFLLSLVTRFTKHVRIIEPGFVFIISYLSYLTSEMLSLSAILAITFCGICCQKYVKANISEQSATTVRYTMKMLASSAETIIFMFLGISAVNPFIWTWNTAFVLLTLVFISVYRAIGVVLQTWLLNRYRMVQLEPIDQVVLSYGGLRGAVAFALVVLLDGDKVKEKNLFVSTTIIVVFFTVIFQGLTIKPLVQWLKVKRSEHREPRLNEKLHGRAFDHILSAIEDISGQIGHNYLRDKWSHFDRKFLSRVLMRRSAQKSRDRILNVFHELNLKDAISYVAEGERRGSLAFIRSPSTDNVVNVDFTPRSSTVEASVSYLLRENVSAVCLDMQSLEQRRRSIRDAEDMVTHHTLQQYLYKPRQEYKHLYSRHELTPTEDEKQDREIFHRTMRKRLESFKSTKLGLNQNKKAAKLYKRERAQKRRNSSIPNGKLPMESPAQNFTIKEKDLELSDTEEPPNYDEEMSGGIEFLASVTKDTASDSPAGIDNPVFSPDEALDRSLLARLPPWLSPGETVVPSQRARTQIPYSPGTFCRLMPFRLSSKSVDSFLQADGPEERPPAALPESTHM

Chain of wildtype CFTR (P13569 whole entry): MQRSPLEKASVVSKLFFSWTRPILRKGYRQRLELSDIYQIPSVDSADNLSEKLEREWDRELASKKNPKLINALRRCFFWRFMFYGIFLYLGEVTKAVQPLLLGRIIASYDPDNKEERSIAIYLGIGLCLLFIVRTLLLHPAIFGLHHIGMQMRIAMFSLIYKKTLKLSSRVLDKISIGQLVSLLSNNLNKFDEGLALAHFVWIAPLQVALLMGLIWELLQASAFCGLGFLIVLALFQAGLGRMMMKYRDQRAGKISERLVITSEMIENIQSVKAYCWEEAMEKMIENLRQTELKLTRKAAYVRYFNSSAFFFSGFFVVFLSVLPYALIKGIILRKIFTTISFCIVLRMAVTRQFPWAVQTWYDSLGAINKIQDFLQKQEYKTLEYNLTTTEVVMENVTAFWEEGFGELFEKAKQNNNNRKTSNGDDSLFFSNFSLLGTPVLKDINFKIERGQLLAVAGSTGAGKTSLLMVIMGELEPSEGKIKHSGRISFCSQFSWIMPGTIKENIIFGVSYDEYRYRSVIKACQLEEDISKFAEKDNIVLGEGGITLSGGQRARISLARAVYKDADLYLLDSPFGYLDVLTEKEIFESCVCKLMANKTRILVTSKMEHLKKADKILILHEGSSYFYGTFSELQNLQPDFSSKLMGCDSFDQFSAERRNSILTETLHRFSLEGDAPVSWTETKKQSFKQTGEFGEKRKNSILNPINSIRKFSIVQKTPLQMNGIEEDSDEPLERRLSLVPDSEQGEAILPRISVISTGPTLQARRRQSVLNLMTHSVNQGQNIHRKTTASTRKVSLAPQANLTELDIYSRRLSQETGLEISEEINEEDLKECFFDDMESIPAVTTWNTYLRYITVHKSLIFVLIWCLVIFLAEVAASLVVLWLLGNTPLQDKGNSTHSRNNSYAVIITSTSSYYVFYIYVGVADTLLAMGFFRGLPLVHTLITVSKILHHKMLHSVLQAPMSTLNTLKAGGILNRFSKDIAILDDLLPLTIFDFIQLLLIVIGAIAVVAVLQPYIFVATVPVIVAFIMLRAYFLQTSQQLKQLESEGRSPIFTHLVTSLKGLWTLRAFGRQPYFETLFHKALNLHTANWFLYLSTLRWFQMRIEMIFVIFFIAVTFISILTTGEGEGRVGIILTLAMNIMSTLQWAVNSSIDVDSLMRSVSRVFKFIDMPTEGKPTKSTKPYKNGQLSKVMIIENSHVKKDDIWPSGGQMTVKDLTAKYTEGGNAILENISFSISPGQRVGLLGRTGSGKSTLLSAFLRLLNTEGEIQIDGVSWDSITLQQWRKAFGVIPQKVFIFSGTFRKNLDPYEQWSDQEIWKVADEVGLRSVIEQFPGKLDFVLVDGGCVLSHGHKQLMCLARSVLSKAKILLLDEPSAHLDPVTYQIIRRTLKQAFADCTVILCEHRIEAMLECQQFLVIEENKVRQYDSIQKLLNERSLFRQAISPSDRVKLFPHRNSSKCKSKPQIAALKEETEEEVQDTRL

O=C(O)c1ccc(/C=C2\SC(=S)N(c3cccc(C(F)(F)F)c3)C2=O)cc1 [CFTRinh-172, 3-[(3-trifluoromethyl)phenyl]-5-[(4-carboxyphenyl)methylene]-2-thioxo-4-thiazolidinone]
cholera-toxin induced fluid secretion in rat intestinal loops [1]: prevented cholera-toxin induced fluid secretion
ratio of ^14C radioactivity in urine-to-blood ([2]; mice): 5-7
average urine radioactivity ([2]; mice, first 2 hours after infusion): 4.2±1.2×10^5 cpm/mL
^14C radioactivity in brain, heart, skeletal muscle or testes ([2]; mice, i.v. bolus): Little radioactivity
organ distribution of ^14C radioactivity ([2]; mice, later times (30-240 min)): accumulated in the intestine
excreted radioactivity found in the urine ([2]; mice, urine and stool over first 24 hr): 93±3%
organ distribution of ^14C radioactivity ([2]; mice, within 5 min after i.v. infusion): primarily in liver and kidney
concentration of ^14C radioactivity in bile vs. blood ([2]; mouse, in vivo): ~9 fold
accumulation in other vital organs including heart, lung, skeletal muscle and testes ([2]; rodents): little CFTRinh-172 accumulation
blood-brain barrier penetration ([2]; rodents): did not significantly cross the blood-brain barrier
concentration giving significant CFTR inhibition (wildtype CFTR; dose-inhibition, FIG. 2A): 0.3 to 0.6 µM
relative potency (CFTR inhibition) (wildtype CFTR; relative to CFTRinh-172 = 1.0): 1.0
block of Na^+/H^+ exchanger (NHE3) [3]: did not block
